Assay results as given in PubChem BioAssay (NCI).
“And” between values parts separate entries of the source, which are not always exact repeats. Equal values may be shown once.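 Grown in 96-well plates, cells were treated for 48 hours with each compound at five concentrations. Insufficient inhibition: endpoint recorded as highest concentration tested. GI50 marks 50% less growth. At the TGI there is no net growth.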

Tests used:
Test in all cases: NCI anticancer screen, dose series, 48 h
MOLT-4 leukemia = system: MOLT-4 leukemia
SW-620 colon = system: SW-620 colon
SK-MEL-5 melanoma = system: SK-MEL-5 melanoma
NCI-H23 lung = system: NCI-H23 lung
NCI-H460 lung = system: NCI-H460 lung
SF-295 CNS = system: SF-295 CNS
HOP-92 NSCLC = system: HOP-92 NSCLC
HCC-2998 colon = system: HCC-2998 colon
RPMI-8226 leukemia = system: RPMI-8226 leukemia
UACC-62 melanoma = system: UACC-62 melanoma

CN(C)CCNC(=O)Nc1ccc(N(C)c2ccnc(Nc3ccc(CS(C)(=O)=O)cc3)n2)cc1
GI50 (MOLT-4 leukemia): > 25 µM
TGI (MOLT-4 leukemia): > 25 µM
GI50 (SW-620 colon): > 25 µM
TGI (SW-620 colon): > 25 µM
GI50 (SK-MEL-5 melanoma): > 25 µM
TGI (SK-MEL-5 melanoma): > 25 µM
GI50 (NCI-H23 lung): > 25 µM
TGI (NCI-H23 lung): > 25 µM
GI50 (NCI-H460 lung): > 25 µM
TGI (NCI-H460 lung): > 25 µM
GI50 (SF-295 CNS): > 25 µM
TGI (SF-295 CNS): > 25 µM
GI50 (HOP-92 NSCLC): 6.99 µM
TGI (HOP-92 NSCLC): > 25 µM
GI50 (HCC-2998 colon): > 25 µM
TGI (HCC-2998 colon): > 25 µM
GI50 (RPMI-8226 leukemia): > 25 µM
TGI (RPMI-8226 leukemia): > 25 µM
GI50 (UACC-62 melanoma): > 25 µM
TGI (UACC-62 melanoma): > 25 µM

CCCCCCCCCC1CC(=O)OC23CCCC(=O)C12O3 (stereo not given)
TGI (MOLT-4 leukemia): 71.4 µM
TGI (SW-620 colon): > 100 µM
TGI (SK-MEL-5 melanoma): > 100 µM
TGI (NCI-H23 lung): > 100 µM
TGI (NCI-H460 lung): > 100 µM
TGI (SF-295 CNS): > 100 µM
TGI (HOP-92 NSCLC): > 100 µM
TGI (HCC-2998 colon): > 100 µM
TGI (RPMI-8226 leukemia): > 100 µM
TGI (UACC-62 melanoma): > 100 µM

OCC1OC(OC2(CO)OC(CO)C(O)C2O)C(O)C(O)C1O (stereo not given)
GI50 (MOLT-4 leukemia): > 100 µM
TGI (MOLT-4 leukemia): > 100 µM
GI50 (SW-620 colon): > 100 µM
TGI (SW-620 colon): > 100 µM
GI50 (SK-MEL-5 melanoma): > 100 µM
TGI (SK-MEL-5 melanoma): > 100 µM
GI50 (NCI-H23 lung): > 100 µM
TGI (NCI-H23 lung): > 100 µM
GI50 (NCI-H460 lung): > 100 µM
TGI (NCI-H460 lung): > 100 µM
GI50 (SF-295 CNS): > 100 µM
TGI (SF-295 CNS): > 100 µM
GI50 (HOP-92 NSCLC): > 100 µM
TGI (HOP-92 NSCLC): > 100 µM
GI50 (HCC-2998 colon): > 100 µM
TGI (HCC-2998 colon): > 100 µM
GI50 (RPMI-8226 leukemia): > 100 µM
TGI (RPMI-8226 leukemia): > 100 µM
GI50 (UACC-62 melanoma): > 100 µM
TGI (UACC-62 melanoma): > 100 µM

CN(C)CCCOc1ccc(NC2=C(Cl)C(=O)C(Nc3ccc(OCCCN(C)C)cc3)=C(Cl)C2=O)cc1
GI50 (MOLT-4 leukemia): 0.325 µM
TGI (MOLT-4 leukemia): 2.38 µM
GI50 (SW-620 colon): 0.297 µM
TGI (SW-620 colon): 0.809 µM
GI50 (SK-MEL-5 melanoma): 1.31 µM
TGI (SK-MEL-5 melanoma): 2.59 µM
GI50 (NCI-H23 lung): 0.292 µM
TGI (NCI-H23 lung): 1.02 µM
GI50 (NCI-H460 lung): 0.872 µM
TGI (NCI-H460 lung): 2.55 µM
GI50 (SF-295 CNS): 1.67 µM
TGI (SF-295 CNS): 3.19 µM
GI50 (HOP-92 NSCLC): 0.567 µM
TGI (HOP-92 NSCLC): 1.08 µM
GI50 (HCC-2998 colon): 0.769 µM
TGI (HCC-2998 colon): 2.09 µM
GI50 (RPMI-8226 leukemia): 2.01 µM
TGI (RPMI-8226 leukemia): 5.22 µM
GI50 (UACC-62 melanoma): 1.61 µM
TGI (UACC-62 melanoma): 3.09 µM

O=C1C2C(C(=O)N1Cc1ccccc1)N(Cc1ccccc1)C(=O)N2Cc1ccccc1 (stereo not given)
TGI (MOLT-4 leukemia): > 100 µM
TGI (SW-620 colon): > 100 µM
TGI (SK-MEL-5 melanoma): > 100 µM
TGI (NCI-H23 lung): > 100 µM
TGI (NCI-H460 lung): > 100 µM
TGI (SF-295 CNS): > 100 µM
TGI (HOP-92 NSCLC): > 100 µM
TGI (HCC-2998 colon): > 100 µM
TGI (RPMI-8226 leukemia): > 100 µM
TGI (UACC-62 melanoma): > 100 µM

OCc1ccc(-c2ccc(-c3ccc(CO)o3)o2)o1
GI50 (MOLT-4 leukemia): > 100 µM
TGI (MOLT-4 leukemia): > 100 µM
GI50 (SW-620 colon): > 100 µM
TGI (SW-620 colon): > 100 µM
GI50 (SK-MEL-5 melanoma): > 100 µM
TGI (SK-MEL-5 melanoma): > 100 µM
GI50 (NCI-H23 lung): > 100 µM
TGI (NCI-H23 lung): > 100 µM
GI50 (NCI-H460 lung): > 100 µM
TGI (NCI-H460 lung): > 100 µM
GI50 (SF-295 CNS): 23.7 µM
TGI (SF-295 CNS): > 100 µM
GI50 (HOP-92 NSCLC): > 49.6 µM
TGI (HOP-92 NSCLC): > 100 µM
GI50 (HCC-2998 colon): > 82 µM
TGI (HCC-2998 colon): > 100 µM
GI50 (RPMI-8226 leukemia): > 100 µM
TGI (RPMI-8226 leukemia): > 100 µM
GI50 (UACC-62 melanoma): 16.7 µM
TGI (UACC-62 melanoma): > 100 µM

CCOC(=O)[C@@H](C)C[C@H](Cc1ccccc1)NC(=O)c1csc([C@@H](C[C@H](C(C)C)N(C)C(=O)CNC(=O)[C@H]2CCCCN2C)OC(C)=O)n1
GI50 (MOLT-4 leukemia): 3.12 µM
TGI (MOLT-4 leukemia): > 14.3 µM
GI50 (SW-620 colon): 0.733 µM
TGI (SW-620 colon): > 14.3 µM
GI50 (SK-MEL-5 melanoma): 0.444 µM
TGI (SK-MEL-5 melanoma): > 7.3 µM
GI50 (NCI-H23 lung): 2.34 µM
TGI (NCI-H23 lung): > 14.3 µM
GI50 (NCI-H460 lung): 0.612 µM
TGI (NCI-H460 lung): > 6.66 µM
GI50 (SF-295 CNS): 0.621 µM
TGI (SF-295 CNS): 6.85 µM
GI50 (HOP-92 NSCLC): 0.254 µM
TGI (HOP-92 NSCLC): 2.63 µM
GI50 (HCC-2998 colon): 0.795 µM
TGI (HCC-2998 colon): > 14.3 µM
GI50 (RPMI-8226 leukemia): 0.496 µM
TGI (RPMI-8226 leukemia): > 14.3 µM
GI50 (UACC-62 melanoma): 0.514 µM
TGI (UACC-62 melanoma): > 14.3 µM

CCOC(=O)C[C@@]12CCCN[C@]1(C)CCc1ccccc12
TGI (MOLT-4 leukemia): > 100 µM
TGI (SW-620 colon): > 100 µM
TGI (SK-MEL-5 melanoma): > 100 µM
TGI (NCI-H23 lung): > 100 µM
TGI (NCI-H460 lung): > 100 µM
TGI (SF-295 CNS): > 100 µM
TGI (HOP-92 NSCLC): > 100 µM
TGI (HCC-2998 colon): > 100 µM
TGI (RPMI-8226 leukemia): > 100 µM
TGI (UACC-62 melanoma): > 100 µM

COc1cccc(-c2cc(=O)c3cc(N4CCN(C)CC4)ccc3[nH]2)c1
GI50 (MOLT-4 leukemia): 2.06 µM
TGI (MOLT-4 leukemia): 7.21 µM
GI50 (SW-620 colon): 0.755 µM
TGI (SW-620 colon): > 100 µM
GI50 (SK-MEL-5 melanoma): 0.766 µM
GI50 (NCI-H23 lung): 3.45 µM
TGI (NCI-H460 lung): > 100 µM
GI50 (SF-295 CNS): 8.34 µM
GI50 (HOP-92 NSCLC): 3.1 µM
GI50 (HCC-2998 colon): 1.15 µM
TGI (HCC-2998 colon): 4.71 µM and 3.88 µM
GI50 (RPMI-8226 leukemia): 1.93 µM
TGI (RPMI-8226 leukemia): 6.11 µM
GI50 (UACC-62 melanoma): 1.46 µM
TGI (UACC-62 melanoma): > 100 µM
